Structures are written as SMILES. Starred links: 1 amine or outer side, 2 acyl side, 3 side chain; linkers in the order of their positions; H or OH if unused. Non-standard residues stand in square brackets, D forms with d. Residues, ends and D or L forms follow the SMILES beside them. Groups on a side chain read outwards from the residue. *: point of attachment. Phe(4-CH2NH2) = NCc1ccc(C[C@H](N)C(=O)O)cc1; C18 diacid = O=C(O)CCCCCCCCCCCCCCCCC(=O)*; C16 diacid = O=C(O)CCCCCCCCCCCCCCC(=O)*; γGlu = O=C(O)[C@H](CCC(=O)[*:2])N[*:1]; Met(O2) = CS(=O)(=O)CC[C@H](N)C(=O)O; αMeD = C[C@](N)(CC(=O)O)C(=O)O; AEEA = NCCOCCOCC(=O)O; Aib = CC(C)(N)C(=O)O

The target of one experiment is T1, human GLP1R (Homo sapiens, UniProt P43220).
T1 construct: expressed in transfected cells; kept under Blasticidin and Hygromycin selection
As to the kind of experiment: cAMP activity assay, cells expressing human GLP1R. The note with it: cAMP production, assay buffer with or without 20% human serum (not stated which). In kind it is cell-based. The essentials: (§1)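 Peptides as 10-point titrations from DMSO tested on cells expressing human GLP1R or GCGR. cAMP measured by luminescent kit after overnight room-temperature incubation in the dark. EC50 from four-parameter logistic fit; native GLP-1 and glucagon as controls.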

The next experiment addresses T2, human GCGR (Homo sapiens, UniProt P47871).
T2 construct: expressed in transfected cells; kept under Blasticidin and Hygromycin selection
As to the kind of experiment: cAMP activity assay, cells expressing human GCGR. The class given is cell-based. The note with it: for EC50: cAMP production, cells expressing human GCGR, assay buffer with or without 20% human serum (not stated which), read-out: GCGR EC50 human; for hGCGR/hGLP1R (hTone): ratio of human GCGR EC50 to human GLP1R EC50. The essentials:
as §1

T2 sequence (P47871 26-477): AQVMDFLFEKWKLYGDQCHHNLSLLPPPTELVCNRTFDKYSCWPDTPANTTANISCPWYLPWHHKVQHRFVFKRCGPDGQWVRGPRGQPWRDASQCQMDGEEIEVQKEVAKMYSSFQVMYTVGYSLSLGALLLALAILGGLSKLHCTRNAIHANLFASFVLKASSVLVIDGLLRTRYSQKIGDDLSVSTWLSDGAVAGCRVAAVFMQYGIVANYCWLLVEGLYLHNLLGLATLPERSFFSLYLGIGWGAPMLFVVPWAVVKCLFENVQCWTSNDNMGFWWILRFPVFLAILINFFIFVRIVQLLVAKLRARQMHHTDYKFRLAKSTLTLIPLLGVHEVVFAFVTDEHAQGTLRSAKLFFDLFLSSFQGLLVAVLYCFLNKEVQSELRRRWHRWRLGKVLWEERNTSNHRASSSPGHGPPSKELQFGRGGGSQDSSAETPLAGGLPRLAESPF
T1 sequence (P43220 24-463): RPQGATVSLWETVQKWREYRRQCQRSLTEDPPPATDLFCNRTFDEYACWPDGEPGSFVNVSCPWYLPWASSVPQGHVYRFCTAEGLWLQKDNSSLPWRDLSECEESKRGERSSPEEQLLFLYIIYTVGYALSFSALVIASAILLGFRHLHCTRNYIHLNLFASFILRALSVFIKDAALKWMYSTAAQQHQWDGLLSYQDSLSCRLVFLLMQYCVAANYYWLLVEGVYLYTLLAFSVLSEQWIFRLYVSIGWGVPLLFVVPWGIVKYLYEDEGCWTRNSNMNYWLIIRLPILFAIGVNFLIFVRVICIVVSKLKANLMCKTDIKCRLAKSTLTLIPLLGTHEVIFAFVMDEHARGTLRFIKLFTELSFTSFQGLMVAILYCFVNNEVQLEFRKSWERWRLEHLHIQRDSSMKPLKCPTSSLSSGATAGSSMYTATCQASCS

As to `CC(C)C[C@H](NC(=O)[C@H](Cc1ccc(O)cc1)NC(=O)[C@H](CCCCN)NC(=O)[C@H](CO)NC(=O)[C@H](Cc1ccc(CNC(=O)COCCOCCNC(=O)COCCOCCNC(=O)CC[C@H](NC(=O)CCCCCCCCCCCCCCCCC(=O)O)C(=O)O)cc1)NC(=O)[C@H](CC(=O)O)NC(=O)[C@H](CO)NC(=O)[C@@H](NC(=O)[C@H](Cc1ccccc1)NC(=O)[C@@H](NC(=O)CNC(=O)[C@H](CCC(N)=O)NC(=O)C(C)(C)NC(=O)[C@@H](N)Cc1c[nH]cn1)[C@@H](C)O)[C@@H](C)O)C(=O)N[C@@H](CC(=O)O)C(=O)N[C@@H](C)C(=O)N[C@@H](CCCNC(=N)N)C(=O)N[C@@H](C)C(=O)N[C@@H](C)C(=O)N[C@@H](CCC(N)=O)C(=O)N[C@@H](CC(=O)O)C(=O)N[C@@H](Cc1ccccc1)C(=O)N[C@H](C(=O)N[C@@H](CCC(N)=O)C(=O)N[C@@H](Cc1c[nH]c2ccccc12)C(=O)N[C@@H](CC(C)C)C(=O)N[C@@H](CCS(C)(=O)=O)C(=O)N[C@@H](CC(=O)O)C(=O)N[C@H](C(N)=O)[C@@H](C)O)C(C)C` [compound 28] (H-H[Aib]QGTFTSD[Phe(4-CH2NH2)]([AEEA-AEEA-γGlu-C18 diacid])SKYLDARAAQDFVQWL[Met(O2)]DT-NH2), the EC50 (commonly the concentration giving half of the maximal effect) on human GLP1R was 0.14 nM. Further, at human GCGR, the EC50 stood at 0.43 nM and the “hGCGR/hGLP1R (hTone)” value is recorded as 3.11.
For `CC(C)C[C@H](NC(=O)[C@H](Cc1ccc(O)cc1)NC(=O)[C@H](CCCCN)NC(=O)[C@H](CO)NC(=O)[C@H](Cc1ccc(O)cc1)NC(=O)[C@H](CC(=O)O)NC(=O)[C@H](CO)NC(=O)[C@@H](NC(=O)[C@H](Cc1ccccc1)NC(=O)[C@@H](NC(=O)CNC(=O)[C@H](CCC(N)=O)NC(=O)C(C)(C)NC(=O)[C@@H](N)Cc1c[nH]cn1)[C@@H](C)O)[C@@H](C)O)C(=O)N[C@@H](CC(=O)O)C(=O)N[C@@H](C)C(=O)N[C@@H](CCCNC(=N)N)C(=O)N[C@@H](C)C(=O)N[C@@H](C)C(=O)N[C@@H](Cc1ccc(CNC(=O)COCCOCCNC(=O)COCCOCCNC(=O)CC[C@H](NC(=O)CCCCCCCCCCCCCCCCC(=O)O)C(=O)O)cc1)C(=O)N[C@@H](CC(=O)O)C(=O)N[C@@H](Cc1ccccc1)C(=O)N[C@H](C(=O)N[C@@H](CCC(N)=O)C(=O)N[C@@H](Cc1c[nH]c2ccccc12)C(=O)N[C@@H](CC(C)C)C(=O)N[C@@H](CC(C)C)C(=O)N[C@@H](CC(=O)O)C(=O)N[C@H](C(N)=O)[C@@H](C)O)C(C)C` [compound 31] (H-H[Aib]QGTFTSDYSKYLDARAA[Phe(4-CH2NH2)]([AEEA-AEEA-γGlu-C18 diacid])DFVQWLLDT-NH2) the same measures were 0.37 nM, 0.26 nM and 0.70.
For `CC(C)C[C@H](NC(=O)[C@H](Cc1ccc(O)cc1)NC(=O)[C@H](CCCCN)NC(=O)[C@H](CO)NC(=O)[C@H](Cc1ccc(O)cc1)NC(=O)[C@H](CC(=O)O)NC(=O)[C@H](CO)NC(=O)[C@@H](NC(=O)[C@H](Cc1ccccc1)NC(=O)[C@@H](NC(=O)CNC(=O)[C@H](CCC(N)=O)NC(=O)C(C)(C)NC(=O)[C@@H](N)Cc1c[nH]cn1)[C@@H](C)O)[C@@H](C)O)C(=O)N[C@@H](CC(=O)O)C(=O)N[C@@H](C)C(=O)N[C@@H](CCCNC(=N)N)C(=O)N[C@@H](C)C(=O)N[C@@H](C)C(=O)N[C@@H](CCCCNC(=O)COCCOCCNC(=O)COCCOCCNC(=O)CC[C@H](NC(=O)CCCCCCCCCCCCCCC(=O)O)C(=O)O)C(=O)N[C@@](C)(CC(=O)O)C(=O)N[C@@H](Cc1ccccc1)C(=O)N[C@H](C(=O)N[C@@H](CCC(N)=O)C(=O)N[C@@H](Cc1c[nH]c2ccccc12)C(=O)N[C@@H](CC(C)C)C(=O)N[C@@H](CCS(C)(=O)=O)C(=O)N[C@@H](CC(=O)O)C(=O)N[C@H](C(N)=O)[C@@H](C)O)C(C)C` [compound 42] (H-H[Aib]QGTFTSDYSKYLDARAAK([AEEA-AEEA-γGlu-C16 diacid])[αMeD]FVQWL[Met(O2)]DT-NH2) the same measures were 0.04 nM, 0.13 nM and 3.21.
Consider `CC(C)C[C@H](NC(=O)[C@H](Cc1ccc(O)cc1)NC(=O)[C@H](CCCCN)NC(=O)[C@H](CO)NC(=O)[C@H](Cc1ccc(O)cc1)NC(=O)[C@H](CC(=O)O)NC(=O)[C@H](CO)NC(=O)[C@@H](NC(=O)[C@H](Cc1ccccc1)NC(=O)[C@@H](NC(=O)CNC(=O)[C@H](CCC(N)=O)NC(=O)[C@@H](CO)NC(=O)[C@@H](N)Cc1c[nH]cn1)[C@@H](C)O)[C@@H](C)O)C(=O)N[C@@H](CC(=O)O)C(=O)N[C@@H](C)C(=O)N[C@@H](CCCNC(=N)N)C(=O)N[C@@H](C)C(=O)N[C@@H](C)C(=O)N[C@@H](CCCCNC(=O)COCCOCCNC(=O)COCCOCCNC(=O)CC[C@H](NC(=O)CCCCCCCCCCCCCCC(=O)O)C(=O)O)C(=O)N[C@@H](CC(=O)O)C(=O)N[C@@H](Cc1ccccc1)C(=O)N[C@H](C(=O)N[C@@H](CCC(N)=O)C(=O)N[C@@H](Cc1c[nH]c2ccccc12)C(=O)N[C@@H](CC(C)C)C(=O)N[C@@H](CCS(C)(=O)=O)C(=O)N[C@@H](CC(=O)O)C(=O)N[C@H](C(N)=O)[C@@H](C)O)C(C)C` [compound 14] (H-H[dS]QGTFTSDYSKYLDARAAK([AEEA-AEEA-γGlu-C16 diacid])DFVQWL[Met(O2)]DT-NH2), for which, at human GLP1R, a half-maximal response (EC50) required 1.13 nM. Moreover, at human GCGR, the EC50 is 0.04 nM and the “hGCGR/hGLP1R (hTone)” value was found to be 0.03.
With `CC(C)C[C@H](NC(=O)[C@H](Cc1ccc(O)cc1)NC(=O)[C@H](CCCCN)NC(=O)[C@H](CO)NC(=O)[C@H](Cc1ccc(CNC(=O)COCCOCCNC(=O)COCCOCCNC(=O)CC[C@H](NC(=O)CCCCCCCCCCCCCCC(=O)O)C(=O)O)cc1)NC(=O)[C@H](CC(=O)O)NC(=O)[C@H](CO)NC(=O)[C@@H](NC(=O)[C@H](Cc1ccccc1)NC(=O)[C@@H](NC(=O)CNC(=O)[C@H](CCC(N)=O)NC(=O)C(C)(C)NC(=O)[C@@H](N)Cc1c[nH]cn1)[C@@H](C)O)[C@@H](C)O)C(=O)N[C@@H](CC(=O)O)C(=O)N[C@@H](CCC(=O)O)C(=O)N[C@@H](CCCNC(=N)N)C(=O)N[C@@H](C)C(=O)N[C@@H](C)C(=O)N[C@@H](CCC(N)=O)C(=O)N[C@@H](CC(=O)O)C(=O)N[C@@H](Cc1ccccc1)C(=O)N[C@H](C(=O)N[C@@H](CCC(N)=O)C(=O)N[C@@H](Cc1c[nH]c2ccccc12)C(=O)N[C@@H](CC(C)C)C(=O)N[C@@H](CC(C)C)C(=O)N[C@@H](CCCCN)C(=O)N[C@H](C(N)=O)[C@@H](C)O)C(C)C` [compound 8] (H-H[Aib]QGTFTSD[Phe(4-CH2NH2)]([AEEA-AEEA-γGlu-C16 diacid])SKYLDERAAQDFVQWLLKT-NH2), the EC50 at human GLP1R is 0.03 nM; on human GCGR, 0.42 nM. The “hGCGR/hGLP1R (hTone)” value on human GCGR is recorded as 15.26.

For the origin of these results see patent publication US11492385B2, “Long-acting co-agonists of the glucagon and GLP-1 receptors” (Merck Sharp & Dohme Corp., priority 2015, dated 2022).
